Earlier results in patent US20100003364A1, “REDUCED-HANGOVER ALCOHOLIC BEVERAGE COMPRISING TURMERIC” (priority 2006, published 2010).

Conditions: biological activities listed for compounds from Curcuma longa L.

Compound	Activity
CC(C)=CC(=O)CC(C)c1ccc(C)cc1 (stereo not shown) [Ar-turmerone]	snakebite
O=C(C=Cc1ccc(O)cc1)CC(=O)C=Cc1ccc(O)cc1 [Bisdemethoxy curcumin]	antioxidant
COc1cc(/C=C/C(=O)CC(=O)/C=C/c2ccc([O-])c(OC)c2)ccc1[O-].[Na+].[Na+] [Sodium curcuminate]	anti-inflammatory
Methylcurcumin	L. amazonensis
